Source: article PMC9817970 (Cancers, 2022)

Assays:
Experiment in all cases: Kinase panel profiling
Format in all cases: biochemical
Conditions in all cases: 10 μM ATP
ALK5/TGFBR1 = target: T1, ALK5/TGFBR1 (Homo sapiens, UniProt P36897)
T1 construct: purchased Reaction Biology Corp
Experimental: (§1) Kinase panel profiling was conducted by Reaction Biology Corp. (San Diego, CA, USA). A single dose (1.0 μM) of 6r was tested against 371 recombinant human kinases in the presence of 10 μM ATP.

AURORA C = target: T2, AURORA C (Homo sapiens, UniProt Q9UQB9)
T2 construct: purchased Reaction Biology Corp
Experimental: as §1

BTK = target: T3, BTK (Homo sapiens, UniProt Q06187)
T3 construct: purchased Reaction Biology Corp
Experimental: as §1

CAMK1b = target: T4, CAMK1b (Homo sapiens, UniProt Q6P2M8)
T4 construct: purchased Reaction Biology Corp
Experimental: as §1

CDK1/cyclin E = target: T5, CDK1/cyclin E (Homo sapiens, UniProt P06493)
T5 construct: purchased Reaction Biology Corp
Experimental: as §1

CDK16/cyclin Y (PCTAIRE) = target: T6, CDK16/cyclin Y (PCTAIRE) (Homo sapiens, UniProt Q00536)
T6 construct: purchased Reaction Biology Corp
Experimental: as §1

CDK3/cyclin E2 = target: T7, CDK3/cyclin E2 (Homo sapiens, UniProt Q00526)
T7 construct: purchased Reaction Biology Corp
Experimental: as §1

CDK6/cyclin D3 = target: T8, CDK6/cyclin D3 (Homo sapiens, UniProt Q00534)
T8 construct: purchased Reaction Biology Corp
Experimental: as §1

CK1g1 = target: T9, CK1g1 (Homo sapiens, UniProt Q9HCP0)
T9 construct: purchased Reaction Biology Corp
Experimental: as §1

DMPK = target: T10, DMPK (Homo sapiens, UniProt Q09013)
T10 construct: purchased Reaction Biology Corp
Experimental: as §1

EPHB4 = target: T11, EPHB4 (Homo sapiens, UniProt P54760)
T11 construct: purchased Reaction Biology Corp
Experimental: as §1

ERK1 = target: T12, ERK1 (Homo sapiens, UniProt P27361)
T12 construct: purchased Reaction Biology Corp
Experimental: as §1

FGFR4 = target: T13, FGFR4 (Homo sapiens, UniProt P22455)
T13 construct: purchased Reaction Biology Corp
Experimental: as §1

GRK6 = target: T14, GRK6 (Homo sapiens, UniProt P43250)
T14 construct: purchased Reaction Biology Corp
Experimental: as §1

IKKb/IKBKB = target: T15, IKKb/IKBKB (Homo sapiens, UniProt O14920)
T15 construct: purchased Reaction Biology Corp
Experimental: as §1

JNK2 = target: T16, JNK2 (Homo sapiens, UniProt P45984)
T16 construct: purchased Reaction Biology Corp
Experimental: as §1

KSR2 = target: T17, KSR2 (Homo sapiens, UniProt Q6VAB6)
T17 construct: purchased Reaction Biology Corp
Experimental: as §1

MEKK1 = target: T18, MEKK1 (Homo sapiens, UniProt Q13233)
T18 construct: purchased Reaction Biology Corp
Experimental: as §1

MELK = target: T19, MELK (Homo sapiens, UniProt Q14680)
T19 construct: purchased Reaction Biology Corp
Experimental: as §1

MLCK/MYLK = target: T20, MLCK/MYLK (Homo sapiens, UniProt Q15746)
T20 construct: purchased Reaction Biology Corp
Experimental: as §1

MST2/STK3 = target: T21, MST2/STK3 (Homo sapiens, UniProt Q13188)
T21 construct: purchased Reaction Biology Corp
Experimental: as §1

MYO3b = target: T22, MYO3b (Homo sapiens, UniProt Q8WXR4)
T22 construct: purchased Reaction Biology Corp
Experimental: as §1

NEK1 = target: T23, NEK1 (Homo sapiens, UniProt Q96PY6)
T23 construct: purchased Reaction Biology Corp
Experimental: as §1

NEK4 = target: T24, NEK4 (Homo sapiens, UniProt P51957)
T24 construct: purchased Reaction Biology Corp
Experimental: as §1

NEK7 = target: T25, NEK7 (Homo sapiens, UniProt Q8TDX7)
T25 construct: purchased Reaction Biology Corp
Experimental: as §1

PAK2 = target: T26, PAK2 (Homo sapiens, UniProt Q13177)
T26 construct: purchased Reaction Biology Corp
Experimental: as §1

PKA = target: T27, PKA (Homo sapiens, UniProt P17612)
T27 construct: purchased Reaction Biology Corp
Experimental: as §1

PKCmu/PRKD1 = target: T28, PKCmu/PRKD1 (Homo sapiens, UniProt Q15139)
T28 construct: purchased Reaction Biology Corp
Experimental: as §1

PKCzeta = target: T29, PKCzeta (Homo sapiens, UniProt Q05513)
T29 construct: purchased Reaction Biology Corp
Experimental: as §1

PKN2/PRK2 = target: T30, PKN2/PRK2 (Homo sapiens, UniProt Q16513)
T30 construct: purchased Reaction Biology Corp
Experimental: as §1

PLK3 = target: T31, PLK3 (Homo sapiens, UniProt Q9H4B4)
T31 construct: purchased Reaction Biology Corp
Experimental: as §1

RIPK3 = target: T32, RIPK3 (Homo sapiens, UniProt Q9Y572)
T32 construct: purchased Reaction Biology Corp
Experimental: as §1

SNARK/NUAK2 = target: T33, SNARK/NUAK2 (Homo sapiens, UniProt Q9H093)
T33 construct: purchased Reaction Biology Corp
Experimental: as §1

SRPK1 = target: T34, SRPK1 (Homo sapiens, UniProt Q96SB4)
T34 construct: purchased Reaction Biology Corp
Experimental: as §1

SSTK/TSSK6 = target: T35, SSTK/TSSK6 (Homo sapiens, UniProt Q9BXA6)
T35 construct: purchased Reaction Biology Corp
Experimental: as §1

SYK = target: T36, SYK (Homo sapiens, UniProt P43405)
T36 construct: purchased Reaction Biology Corp
Experimental: as §1

TESK2 = target: T37, TESK2 (Homo sapiens, UniProt Q96S53)
T37 construct: purchased Reaction Biology Corp
Experimental: as §1

TNIK = target: T38, TNIK (Homo sapiens, UniProt Q9UKE5)
T38 construct: purchased Reaction Biology Corp
Experimental: as §1

TSSK3/STK22C = target: T39, TSSK3/STK22C (Homo sapiens, UniProt Q96PN8)
T39 construct: purchased Reaction Biology Corp
Experimental: as §1

TYK2 = target: T40, TYK2 (Homo sapiens, UniProt P29597)
T40 construct: purchased Reaction Biology Corp
Experimental: as §1

ULK1 = target: T41, ULK1 (Homo sapiens, UniProt O75385)
T41 construct: purchased Reaction Biology Corp
Experimental: as §1

c-Src = target: T42, c-Src (Homo sapiens, UniProt P12931)
T42 construct: purchased Reaction Biology Corp
Experimental: as §1

T5 sequence (P06493 whole entry): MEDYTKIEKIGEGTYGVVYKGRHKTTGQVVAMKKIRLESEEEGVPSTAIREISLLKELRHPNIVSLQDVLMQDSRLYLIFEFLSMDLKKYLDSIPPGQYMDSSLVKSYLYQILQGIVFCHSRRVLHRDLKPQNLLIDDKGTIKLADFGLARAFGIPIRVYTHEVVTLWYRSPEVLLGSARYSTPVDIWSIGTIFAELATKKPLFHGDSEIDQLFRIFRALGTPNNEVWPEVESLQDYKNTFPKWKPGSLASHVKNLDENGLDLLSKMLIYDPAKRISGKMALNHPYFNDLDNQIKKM
T5 sequence (P24864 whole entry partner): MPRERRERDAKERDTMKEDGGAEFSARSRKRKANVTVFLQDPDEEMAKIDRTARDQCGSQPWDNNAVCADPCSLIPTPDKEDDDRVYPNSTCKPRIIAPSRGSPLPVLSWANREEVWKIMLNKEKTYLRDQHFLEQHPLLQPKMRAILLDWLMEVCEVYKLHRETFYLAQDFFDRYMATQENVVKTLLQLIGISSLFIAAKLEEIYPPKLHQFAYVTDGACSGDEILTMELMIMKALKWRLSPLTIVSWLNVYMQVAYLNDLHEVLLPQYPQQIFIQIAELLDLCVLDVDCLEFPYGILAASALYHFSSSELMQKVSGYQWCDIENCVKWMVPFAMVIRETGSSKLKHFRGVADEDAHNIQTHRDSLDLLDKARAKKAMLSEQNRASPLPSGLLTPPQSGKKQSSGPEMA
T37 sequence (Q96S53 whole entry): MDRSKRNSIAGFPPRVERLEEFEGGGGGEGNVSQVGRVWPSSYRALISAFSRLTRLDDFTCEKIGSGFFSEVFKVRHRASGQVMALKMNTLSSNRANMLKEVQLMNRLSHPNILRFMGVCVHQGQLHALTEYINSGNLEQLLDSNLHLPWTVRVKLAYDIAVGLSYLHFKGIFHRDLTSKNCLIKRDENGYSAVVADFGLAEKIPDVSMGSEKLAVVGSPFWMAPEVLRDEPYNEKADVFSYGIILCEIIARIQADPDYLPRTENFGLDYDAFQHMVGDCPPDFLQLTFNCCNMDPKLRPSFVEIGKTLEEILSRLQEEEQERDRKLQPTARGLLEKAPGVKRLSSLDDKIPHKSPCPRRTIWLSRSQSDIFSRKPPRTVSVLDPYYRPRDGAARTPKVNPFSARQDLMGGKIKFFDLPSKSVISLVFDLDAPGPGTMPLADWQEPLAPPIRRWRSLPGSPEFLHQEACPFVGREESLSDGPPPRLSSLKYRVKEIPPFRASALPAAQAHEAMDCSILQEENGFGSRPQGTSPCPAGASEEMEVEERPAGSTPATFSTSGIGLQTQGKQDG
T16 sequence (P45984 whole entry): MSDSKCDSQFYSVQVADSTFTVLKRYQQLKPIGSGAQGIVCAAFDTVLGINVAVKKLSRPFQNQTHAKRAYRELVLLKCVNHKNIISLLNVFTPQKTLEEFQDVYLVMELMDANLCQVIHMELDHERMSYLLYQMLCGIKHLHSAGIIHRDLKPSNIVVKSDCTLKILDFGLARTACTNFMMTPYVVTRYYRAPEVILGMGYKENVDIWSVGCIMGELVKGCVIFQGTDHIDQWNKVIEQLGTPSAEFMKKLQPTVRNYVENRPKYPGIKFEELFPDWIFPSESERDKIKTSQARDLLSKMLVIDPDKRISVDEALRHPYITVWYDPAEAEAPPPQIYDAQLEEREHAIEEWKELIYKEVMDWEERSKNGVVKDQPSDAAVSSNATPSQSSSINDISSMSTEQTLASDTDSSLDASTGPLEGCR
T3 sequence (Q06187 whole entry): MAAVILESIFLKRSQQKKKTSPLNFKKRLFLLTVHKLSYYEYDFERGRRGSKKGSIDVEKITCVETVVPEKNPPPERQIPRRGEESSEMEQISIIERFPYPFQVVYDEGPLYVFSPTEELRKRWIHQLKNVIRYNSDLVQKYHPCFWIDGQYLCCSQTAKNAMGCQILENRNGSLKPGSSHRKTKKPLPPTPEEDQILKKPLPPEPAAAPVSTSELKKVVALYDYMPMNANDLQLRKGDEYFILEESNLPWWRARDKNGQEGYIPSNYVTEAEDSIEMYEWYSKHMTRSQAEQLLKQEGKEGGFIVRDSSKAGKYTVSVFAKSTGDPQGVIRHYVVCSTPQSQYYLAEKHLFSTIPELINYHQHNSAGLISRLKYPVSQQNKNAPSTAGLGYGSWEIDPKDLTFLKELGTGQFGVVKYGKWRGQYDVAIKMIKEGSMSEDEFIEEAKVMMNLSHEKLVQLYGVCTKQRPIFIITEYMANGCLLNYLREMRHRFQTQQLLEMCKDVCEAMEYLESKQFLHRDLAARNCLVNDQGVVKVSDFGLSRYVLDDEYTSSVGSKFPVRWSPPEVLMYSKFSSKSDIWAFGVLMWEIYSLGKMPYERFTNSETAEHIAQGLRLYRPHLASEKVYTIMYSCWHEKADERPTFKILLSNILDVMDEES
T18 sequence (Q13233 whole entry): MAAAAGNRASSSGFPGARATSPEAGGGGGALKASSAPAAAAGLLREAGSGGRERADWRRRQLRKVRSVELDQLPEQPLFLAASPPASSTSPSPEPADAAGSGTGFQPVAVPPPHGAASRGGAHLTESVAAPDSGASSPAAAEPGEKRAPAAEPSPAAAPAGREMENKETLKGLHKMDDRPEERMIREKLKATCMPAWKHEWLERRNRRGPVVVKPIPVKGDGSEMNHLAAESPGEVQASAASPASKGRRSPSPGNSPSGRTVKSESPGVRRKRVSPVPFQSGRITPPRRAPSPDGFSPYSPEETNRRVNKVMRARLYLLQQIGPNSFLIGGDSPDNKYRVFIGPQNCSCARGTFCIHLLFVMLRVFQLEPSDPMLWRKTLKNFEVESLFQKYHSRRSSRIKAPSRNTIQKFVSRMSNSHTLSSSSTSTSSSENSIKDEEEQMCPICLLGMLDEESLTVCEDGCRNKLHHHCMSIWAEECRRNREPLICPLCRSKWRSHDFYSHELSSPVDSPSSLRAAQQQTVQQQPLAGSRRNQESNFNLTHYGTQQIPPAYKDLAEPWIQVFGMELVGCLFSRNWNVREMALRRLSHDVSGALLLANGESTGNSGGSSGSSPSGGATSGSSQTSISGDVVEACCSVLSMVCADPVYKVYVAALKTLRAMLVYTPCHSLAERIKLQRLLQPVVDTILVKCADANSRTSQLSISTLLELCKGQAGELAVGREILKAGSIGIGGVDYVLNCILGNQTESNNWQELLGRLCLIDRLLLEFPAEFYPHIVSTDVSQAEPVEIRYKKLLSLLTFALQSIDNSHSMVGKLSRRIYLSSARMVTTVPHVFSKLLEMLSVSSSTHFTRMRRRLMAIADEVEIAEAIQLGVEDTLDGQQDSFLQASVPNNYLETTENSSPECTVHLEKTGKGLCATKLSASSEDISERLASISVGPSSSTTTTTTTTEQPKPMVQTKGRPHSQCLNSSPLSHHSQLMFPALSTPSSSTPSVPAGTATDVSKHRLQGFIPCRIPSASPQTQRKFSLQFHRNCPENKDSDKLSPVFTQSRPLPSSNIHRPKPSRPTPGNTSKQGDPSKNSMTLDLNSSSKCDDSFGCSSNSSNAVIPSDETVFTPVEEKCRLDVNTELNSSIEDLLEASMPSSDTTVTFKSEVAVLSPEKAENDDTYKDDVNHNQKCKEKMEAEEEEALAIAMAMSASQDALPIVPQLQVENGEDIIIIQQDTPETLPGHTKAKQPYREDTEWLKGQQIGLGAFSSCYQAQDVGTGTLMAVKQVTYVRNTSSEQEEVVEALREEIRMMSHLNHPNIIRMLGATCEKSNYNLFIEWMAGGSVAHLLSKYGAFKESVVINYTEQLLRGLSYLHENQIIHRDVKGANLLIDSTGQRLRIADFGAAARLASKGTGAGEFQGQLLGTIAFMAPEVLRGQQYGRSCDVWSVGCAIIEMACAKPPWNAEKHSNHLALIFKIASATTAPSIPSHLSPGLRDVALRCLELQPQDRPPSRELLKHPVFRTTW
T11 sequence (P54760 16-987): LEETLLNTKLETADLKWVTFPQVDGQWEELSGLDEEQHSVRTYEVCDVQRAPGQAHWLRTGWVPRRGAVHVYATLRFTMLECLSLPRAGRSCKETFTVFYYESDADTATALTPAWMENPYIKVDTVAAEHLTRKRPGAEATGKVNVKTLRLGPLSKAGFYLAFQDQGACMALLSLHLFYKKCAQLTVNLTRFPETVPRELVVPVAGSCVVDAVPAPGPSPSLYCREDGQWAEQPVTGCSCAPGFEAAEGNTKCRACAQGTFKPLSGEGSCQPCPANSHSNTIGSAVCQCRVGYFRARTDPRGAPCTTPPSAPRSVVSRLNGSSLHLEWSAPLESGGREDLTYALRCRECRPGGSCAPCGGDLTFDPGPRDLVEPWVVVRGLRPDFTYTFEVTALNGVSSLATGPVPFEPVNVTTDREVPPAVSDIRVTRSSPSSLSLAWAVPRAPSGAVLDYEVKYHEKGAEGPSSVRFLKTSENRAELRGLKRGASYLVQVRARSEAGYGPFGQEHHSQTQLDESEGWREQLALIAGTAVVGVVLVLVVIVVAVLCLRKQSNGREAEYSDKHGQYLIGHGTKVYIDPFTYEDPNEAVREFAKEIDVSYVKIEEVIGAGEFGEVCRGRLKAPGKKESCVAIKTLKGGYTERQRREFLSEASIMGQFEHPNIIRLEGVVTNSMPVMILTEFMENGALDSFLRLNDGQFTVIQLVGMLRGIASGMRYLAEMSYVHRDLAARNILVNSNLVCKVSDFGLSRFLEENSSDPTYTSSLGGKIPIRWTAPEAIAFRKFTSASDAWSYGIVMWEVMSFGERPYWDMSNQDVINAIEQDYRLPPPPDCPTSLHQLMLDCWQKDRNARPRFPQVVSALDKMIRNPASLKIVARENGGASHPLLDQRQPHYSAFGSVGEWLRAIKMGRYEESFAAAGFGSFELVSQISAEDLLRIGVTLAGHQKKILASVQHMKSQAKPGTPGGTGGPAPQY

With Cc1ccc(NC(=O)c2ccc(CN3CCN(C)CC3)c(C(F)(F)F)c2)cc1-c1cnc2sc(N)nc2c1 [6r] the inhibition at 1 µM (ALK5/TGFBR1) was 0%, the inhibition at 1 µM (AURORA C) was 4.9% and the inhibition at 1 µM (BTK) was 4.7%. It also gave an inhibition at 1 µM (CAMK1b) of 5.4%, an inhibition at 1 µM (CDK1/cyclin E) of 0% and an inhibition at 1 µM (CDK16/cyclin Y (PCTAIRE)) of 0.8%. It also gave an inhibition at 1 µM (CDK3/cyclin E2) of 12.4%, an inhibition at 1 µM (CDK6/cyclin D3) of 4.2% and an inhibition at 1 µM (CK1g1) of 50.5%. For the same compound, the inhibition at 1 µM (DMPK) was 0%, the inhibition at 1 µM (EPHB4) was 27.3% and the inhibition at 1 µM (ERK1) was 11.7%. The inhibition at 1 µM (FGFR4) was 30.1%, the inhibition at 1 µM (GRK6) was 0% and the inhibition at 1 µM (IKKb/IKBKB) was 0%. The inhibition at 1 µM (JNK2) was 31.8%, the inhibition at 1 µM (KSR2) was 0% and the inhibition at 1 µM (MEKK1) was 0%. For the same compound, the inhibition at 1 µM (MELK) was 17.1%, the inhibition at 1 µM (MLCK/MYLK) was 11% and the inhibition at 1 µM (MST2/STK3) was 0%. The inhibition at 1 µM (MYO3b) was 0%, the inhibition at 1 µM (NEK1) was 2.6% and the inhibition at 1 µM (NEK4) was 25.6%. It also gave an inhibition at 1 µM (NEK7) of 5.4%, an inhibition at 1 µM (PAK2) of 5.4% and an inhibition at 1 µM (PKA) of 5.3%. It also gave an inhibition at 1 µM (PKCmu/PRKD1) of 15.9%, an inhibition at 1 µM (PKCzeta) of 0% and an inhibition at 1 µM (PKN2/PRK2) of 0%. The inhibition at 1 µM (PLK3) was 4.8%, the inhibition at 1 µM (RIPK3) was 82.5% and the inhibition at 1 µM (SNARK/NUAK2) was 0%. The inhibition at 1 µM (SRPK1) was 46.3%, the inhibition at 1 µM (SSTK/TSSK6) was 0% and the inhibition at 1 µM (SYK) was 3.2%. It also gave an inhibition at 1 µM (TESK2) of 15.1%, an inhibition at 1 µM (TNIK) of 22.4% and an inhibition at 1 µM (TSSK3/STK22C) of 0%. For the same compound, the inhibition at 1 µM (TYK2) was 7.8%, the inhibition at 1 µM (ULK1) was 3.7% and the inhibition at 1 µM (c-Src) was 68.7%.
